Holding throughout (format): physicochemical
Data set [1] is described as follows: Solubility in pure water (water added progressively until the sample completely dissolved). To be noted: 25° C. (room temperature). As for the experimental part: Take 5 mg of the crystalline form of Afatinib dimaleate in the prior art prepared in preparation example 1 and the crystalline Form N of Afatinib monomaleate prepared in example 1 as the sample respectively, pure water was added into each sample progressively at 25° C. until the sample completely dissolved, then calculate the solubility of the sample according to the weight of the sample and water.

Data set [2] in a line: Dynamic vapour sorption (DVS) isothermal adsorption. The conditions noted are these: relative humidity 10%-80%. How it is done: Dynamic vapour sorption (DVS) data is collected using TA Instruments Q5000 TGA, the instrument control software is Thermal Advantage and the analytical software is Universal Analysis. Usually, 1-10 mg of the specimen is placed in a platinum pan, weight changes of the specimen are recorded by TA software within the process of the relative humidity change from 10% to 80% to 10%. Depending on specific situations, different sorption and desorption procedures may be used. An isothermal adsorption curve can be generated by the procession of software.

The nature of data set [3]: Hygroscopicity of prior-art forms (researches by the present inventors).

In turn, `CN(C)C/C=C/C(=O)Nc1cc2c(Nc3ccc(F)c(Cl)c3)ncnc2cc1O[C@H]1CCOC1` [Afatinib dimaleate] yielded a solubility in data set [1] (listed as crystalline form of Afatinib dimaleate in the prior art) of 7.5 mg/mL. Also, the “weight change of the salt within the relative humidity range of 10%-80%” value in data set [2] (listed as Preparation Example 1) was found to be 2.6%.

Turning to `CN(C)C/C=C/C(=O)Nc1cc2c(Nc3ccc(F)c(Cl)c3)ncnc2cc1O[C@H]1CCOC1` [Afatinib monomaleate], in data set [1] (listed as crystalline Form N of Afatinib monomaleate), the solubility worked out at 126.9 mg/mL. Moreover, the “weight change of the salt within the relative humidity range of 10%-80%” value in data set [2] (listed as Example 1) was 2.1%.

Take `CN(C)C/C=C/C(=O)Nc1cc2c(Nc3ccc(F)c(Cl)c3)ncnc2cc1O[C@H]1CCOC1` [Form B of Afatinib dimaleate, Afatinib dimaleate]: the hygroscopicity entry in data set [3] was “serious hygroscopicity issues”.
